Assay results: patent publication US12514909B2, “Lactate-protected hypoglycemia to treat glycolysis dependent pathological conditions, in particular cancer” (priority 2018, dated 2026)

Tests used:
[1] = cited from earlier work
[2] = Lactate-protected hypoglycemia (HG-HL) in anesthetized pig with extracorporeal HLa infusion; type: in vivo
Protocol: Then, after hyperlactatemia was established, an insulin bolus and continuous infusion of insulin were titrated to achieve a [Glu] of between 1.3 and 1.7 mmol/L (25 to 30 mg/dL). Once the HG (1.5 mmol/L) HL(8 mmol/L) state was achieved, this was maintained for 4 h. Then normoglycemia was allowed to return.
This example entails achievement and sustaining [Glu] at ˜1.5 mmol/L for 4 hours in a pig under a [Lac] of 8 mmol/L.
The preparation started the day before the intervention at 17:00. No food was given to the pig after this time.
On the morning of the intervention the pig ate a small fatty snack combined with 500 mg of metformin. The inhibitory action of metformin on gluconeogenesis is expected to start within 3 h.
A bolus of 0.03 mg/kg medetomidine, a bolus of 4 mg/kg tiletamine-zolazepam and a bolus of 2 to 2.5 mg/kg 1% propofol were delivered intravenously. After intubation, volume-controlled ventilation was started. The respiratory rate was adjusted to target etCO2of 35 to 45 mmHg and a tidal volume of 8 to 10 ml/kg. The tidal volume was later adjusted when required on etCO2, pCO2 and pH. Then a 2-lumen dialysis catheter was surgically placed into the internal jugular vein. An unfractionated heparin bolus of 5000 IU (200 IU/kg) was administered and CVVH was initiated with unfractionated heparin (400 IU/ml) at 1 ml/h, titrated to an activated clotting time (ACT) of 250 to 300 seconds.
Counter-response inhibition was achieved by subsequent intravenous delivery of labetalol (5 mg/ml) at 3 ml/h titrated to a relative heart rate reduction of 10/m, and an intravenous bolus of 25 μg octreotide (10 μg/ml), then the octreotide continuous infusion was proportionally adjusted to keep [Glu] in the desired hypoglycemic range.
Depending on the subsequent [Glu], insulin infusion rates were varied between 0 to 60 U/h. If necessary, an additional bolus dose of insulin was given at least 30 minutes after the initial delivery using the same criteria as described before.
Once both a [Glu] of 1.3 to 1.7 and a [Lac] of 8 to 10 mmol/L was reached, this HG(1.5)HL(8) state was maintained for 4 hours using the clamping technique. Approximately halfway during the HG(1.5)HL(8)-phase the octreotide infusion was stopped as the T1/2 of octreotide is longer than T^1/2 of insulin and because sustained suppression of the hypoglycemic counter response by octreotide might prolong the duration of glucose 50% support during the normoglycemia restoration phase.
During the HG-HL phase, sliding scale adjustments of insulin and glucose 50% pumps were executed.
The glucose 50% infusion rate was adjusted and eventually tapered to zero until stable normoglycemia was achieved.

For `CC(O)C(=O)[O-].[Na+]` (centres unmarked) [sodium lactate], the “side effects of intravenous administration of large amounts” value [1] is listed as “systemic metabolic alkalosis and hypernatremia”.
With `CC(O)C(=O)O` (centres unmarked) [HLa, lactic acid] the “arterial pH and sodium levels throughout the experiment” value ([2]; 30 kg pig, 40% HLa via veno-venous extracorporeal circuit, [Lac] 8 mmol/L, [Glu] ~1.5 mmol/L for 4 h, with insulin, glucose 50%, octreotide, labetalol, metformin) was “maintained within the desired range”, the “hemodynamic instabilities, electrocardiographic or rhythm disturbances” value ([2]; 30 kg pig, HG(1.5)HL(8) state for 4 h) was “no hemodynamic instabilities, electrocardiographic or rhythm disturbances were observed” and the “time after end of the HG-HL-phase until normoglycemia without exogenous glucose or lactate support” value ([2]; 30 kg pig, after 4 h HG(1.5)HL(8)) was 90 min. For the same molecule, the “metabolic alkalosis or hypernatremia on administration of high doses” value ([2]; high doses of HLa instead of NaLa) was “did not lead to metabolic alkalosis or hypernatremia”.
